Patent publication US10781184B2, “Substituted benzazinones as antibacterial compounds” (GlaxoSmithKline Intellectual Property Development Limited, priority 2015, dated 2020)
Values after ≈ are worked out from the molar mass of the structure shown.

How the values were obtained:
Untagged E. coli LpxC = target: T1, Untagged E. coli LpxC (Escherichia coli, UniProt P0A725); assay: E. coli Enzyme Assay (LpxC deacetylase, RapidFire MS); type: biochemical; settings: read-out: E. coli plC50 (converted)
T1 construct: Untagged E. Coli LpxC 1-300 was expressed in E. Coli; made in house; host or cells: E. coli
T1 sequence (P0A725 1-300): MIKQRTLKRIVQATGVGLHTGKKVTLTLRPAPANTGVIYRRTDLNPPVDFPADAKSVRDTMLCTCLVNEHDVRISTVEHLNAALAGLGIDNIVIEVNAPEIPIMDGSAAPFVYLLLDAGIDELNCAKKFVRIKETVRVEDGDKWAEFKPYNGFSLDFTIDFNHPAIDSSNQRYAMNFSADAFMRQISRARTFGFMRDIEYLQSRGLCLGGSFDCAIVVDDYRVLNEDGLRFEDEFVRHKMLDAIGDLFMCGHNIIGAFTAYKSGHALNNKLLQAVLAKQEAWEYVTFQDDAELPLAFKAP
Excerpt: Untagged E. Coli LpxC 1-300 was expressed in E. Coli and purified with NiNTA Agarose, Superdex 200 and Mono Q columns. UDP-3-O—(R-3-hydroxymyristoyl)-N-Acetylglucosamine Substrate was obtained through a custom synthesis from Alberta Innovates Technology Futures. Method Untagged E. coli LpxC is a deacetylase, which can remove an acetyl-group from UDP-3-O—(R-3-hydroxymyristoyl)-N-Acetylglucosamine (m/z 832.1-385) to result in a product (m/z 790.3→385) that is 42 Daltons less than the original acetylated substrate. Direct detection of the deacetylated product and acetylated substrate was accomplished through an Agilent RapidFire v. 3.4/Sciex 4000 Q-Trap RF-MS instrument. […] Following a 30 minute preincubation, 20 μL of 2× substrate [2 μM final concentration; 39.984 mL buffer+16 μL of UDP-3-O—(R-3-hydroxymyristoyl)-N-Acetylglucosamine (at 10 mM Stock)] was added and incubated for 25 minutes. The reaction was quenched by the addition of 10 μL of 1N HCl. The plate was loaded onto the Agilent RapidFire v. 3.4/Sciex 4000 Q-Trap RF-MS instrument for analysis [C4 SPE cartridge, 2 mM ammonium acetate in 100 v/v water as the aqueous eluent and 5 mM ammonium acetate in 25% v/v/25% v/v/50% v/v acetonitrile/acetone/water as the organic eluent]. For dose response experiments % conversion were determined from the substrate and product extracted ion chromatogram (XIC) areas and normalized to the assay high and low controls. Normalized data were fit by ActivityBase XE using the equation y=a+(b−a)/(1+(10^x/10^c)^d), where a is the minimum % activity, b is the maximum % activity, c is the pIC50, and d is the Hill slope. ^1Langsdorf, Erik F. et al. Screening for Antibacterial Inhibitors of the UDP-3-O—(R-3-Hydroxymyristoyl)-N-Acetylglucosamine Deacetylase (LpxC) Using a High-Throughput Mass Spectroscopy Assay. See, J. Biomol. Screen. 2010, 15, 52-61. Minimum Inhibitory Concentration Assay

E. coli 7623 = assay: Minimum Inhibitory Concentration Assay (broth microdilution, CLSI); type: cell-based; settings: Escherichia coli; strain 7623, broth microdilution; read-out: E. coli 7623 MIC
Outline: (§1)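 CLSI broth microdilution for aerobic bacteria; compounds serially diluted in the recommended broth over a final range of 0.125–128 mcg/mL, final DMSO below 1%. MIC read as the lowest concentration inhibiting visible growth.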

K. pneumoniae 1161486 = assay: as above; type: cell-based; settings: Klebsiella pneumoniae; strain 1161486, broth microdilution; read-out: K. pneumoniae 1161486 MIC
Outline: as §1

P. aeruginosa PA01 = assay: as above; type: cell-based; settings: Pseudomonas aeruginosa; strain PA01, broth microdilution; read-out: P. aeruginosa PA01 MIC
Outline: as §1

Compound | MIC (E. coli 7623) [µg/mL] | MIC (K. pneumoniae 1161486) [µg/mL] | MIC (P. aeruginosa PA01) [µg/mL] | IC50 (Untagged E. coli LpxC) [nM]
COc1ccc(-c2ccc3c(=O)n(CC[C@](C)(C(=O)NO)S(C)(=O)=O)cnc3c2)cc1 [Example 3, (R)—N-hydroxy-4-(7-(4-methoxyphenyl)-4-oxoquinazolin-3(4H)-yl)-2-methyl-2-(methylsulfonyl)butanamide] | 0.06 (≈ 0.135 µM) | 0.5 (≈ 1.12 µM) | 2 (≈ 4.49 µM) | 1
C[C@@](CCn1cnc2cc(-c3ccc(CCN4CCOCC4)cc3)ccc2c1=O)(C(=O)NO)S(C)(=O)=O [Example 42, (2R)—N-hydroxy-2-methanesulfonyl-2-methyl-4-(7-{4-[2-(morpholin-4-yl)ethyl]phenyl}-4-oxo-3,4-dihydroquinazolin-3-yl)butanamide] | 0.25 (≈ 0.473 µM) | 0.5 (≈ 0.946 µM) | 2 (≈ 3.78 µM) | 1
C[C@@](CCn1ccc2cc(-c3ccc(CN4CCOCC4)cc3)ccc2c1=O)(C(=O)NO)S(C)(=O)=O [Example 64, (2R)—N-hydroxy-2-methanesulfonyl-2-methyl-4-(6-{4-[(morpholin-4-yl)methyl]phenyl}-1-oxo-1,2-dihydroisoquinolin-2-yl)butanamide] | < 0.03 | 0.25 (≈ 0.487 µM) | 0.5 (≈ 0.973 µM) | 1
COC(C)(C)CNCc1ccc(-c2ccc3c(=O)n(CC[C@](C)(C(=O)NO)S(C)(=O)=O)ccc3c2)c(F)c1 [Example 68, (2R)-4-[6-(2-fluoro-4-{[(2-methoxy-2-methylpropyl)amino]methyl}phenyl)-1-oxo-1,2-dihydroisoquinolin-2-yl]-N-hydroxy-2-methanesulfonyl-2-methylbutanamide] | 0.125 (≈ 0.228 µM) | 0.5 (≈ 0.913 µM) | 2 (≈ 3.65 µM) | 1
CN(C)Cc1ccc(-c2ccc3c(=O)n(CC[C@](C)(C(=O)NO)S(C)(=O)=O)ccc3c2)c(F)c1F [Example 69, (2R)-4-(6-{4-[(dimethylamino)methyl]-2,3-difluorophenyl}-1-oxo-1,2-dihydroisoquinolin-2-yl)-N-hydroxy-2-methanesulfonyl-2-methylbutanamide] | 0.125 (≈ 0.246 µM) | 1 (≈ 1.97 µM) | 1 (≈ 1.97 µM) | 1
C[C@@](CCn1ccc2cc(-c3ccc(CN4CCCC4=O)cc3)ccc2c1=O)(C(=O)NO)S(C)(=O)=O [Example 81, (2R)—N-hydroxy-2-methanesulfonyl-2-methyl-4-(1-oxo-6-{4-[(2-oxopyrrolidin-1-yl)methyl]phenyl}-1,2-dihydroisoquinolin-2-yl)butanamide] | 0.25 (≈ 0.489 µM) | 0.5 (≈ 0.977 µM) | 1 (≈ 1.95 µM) | –
CN(CCOc1ccc(-c2ccc3c(=O)n(CC[C@](C)(C(=O)NO)S(C)(=O)=O)ccc3c2)cn1)C1CC1.O=C(O)C(F)(F)F [Example 82, (2R)-4-[6-(6-{2-[cyclopropyl(methyl)amino]ethoxy}pyridin-3-yl)-1-oxo-1,2-dihydroisoquinolin-2-yl]-N-hydroxy-2-methanesulfonyl-2-methylbutanamide] | 0.25 | 0.25 | 4 | –
C[C@@](CCn1cc(F)c2cc(-c3ccccc3)ccc2c1=O)(C(=O)NO)S(C)(=O)=O [Example 84, (2R)-4-(4-fluoro-1-oxo-6-phenyl-1,2-dihydroisoquinolin-2-yl)-N-hydroxy-2-methanesulfonyl-2-methylbutanamide] | 0.5 (≈ 1.16 µM) | 0.25 (≈ 0.578 µM) | 4 (≈ 9.25 µM) | –
CN(C)Cc1ccc(-c2ccc3c(=O)n(CC[C@](C)(C(=O)NO)S(C)(=O)=O)cc(F)c3c2)cc1 [Example 85, (2R)-4-(6-{4-[(dimethylamino)methyl]phenyl}-4-fluoro-1-oxo-1,2-dihydroisoquinolin-2-yl)-N-hydroxy-2-methanesulfonyl-2-methylbutanamide] | 0.5 (≈ 1.02 µM) | 1 (≈ 2.04 µM) | 4 (≈ 8.17 µM) | –
C[C@@](CCN1CCc2cc(-c3ccc(CN4CCOCC4)cc3)ccc2C1=O)(C(=O)NO)S(C)(=O)=O [Example 92, (2R)—N-hydroxy-2-methanesulfonyl-2-methyl-4-(6-{4-[(morpholin-4-yl)methyl]phenyl}-1-oxo-1,2,3,4-tetrahydroisoquinolin-2-yl)butanamide] | 0.5 (≈ 0.97 µM) | 0.5 (≈ 0.97 µM) | 4 (≈ 7.76 µM) | –
CN(C)CC(=O)OCCc1ccc(-c2ccc3c(=O)n(CC[C@](C)(C(=O)NO)S(C)(=O)=O)ccc3c2)cc1 [Example 94, 2-(4-{2-[(3R)-3-(hydroxycarbamoyl)-3-methanesulfonyl-3-methylpropyl]-1-oxo-1,2-dihydroisoquinolin-6-yl}phenyl)ethyl 2-(dimethylamino)acetate] | 0.125 (≈ 0.23 µM) | 0.25 (≈ 0.46 µM) | 2 (≈ 3.68 µM) | –

Now from value to molecule, other results behind:

MIC (E. coli 7623) [µg/mL] | MIC (K. pneumoniae 1161486) [µg/mL] | MIC (P. aeruginosa PA01) [µg/mL] | Compound | IC50 (Untagged E. coli LpxC) [nM]
0.125 (≈ 0.257 µM) | 0.5 (≈ 1.03 µM) | 8 (≈ 16.4 µM) | CN(C)NCc1ccc(-c2ccc3c(=O)n(CC[C@](C)(C(=O)NO)S(C)(=O)=O)ccc3c2)cc1 [Example 79, (2R)-4-(6-{4-[(2,2-dimethylhydrazin-1-yl)methyl]phenyl}-1-oxo-1,2-dihydroisoquinolin-2-yl)-N-hydroxy-2-methanesulfonyl-2-methylbutanamide] | –
0.063 (≈ 0.119 µM) | 0.25 (≈ 0.474 µM) | 1 (≈ 1.9 µM) | C[C@@](CCn1ccc2cc(-c3ccc(CCN4CCOCC4)cc3)ccc2c1=O)(C(=O)NO)S(C)(=O)=O [Example 80, (2R)—N-hydroxy-2-methanesulfonyl-2-methyl-4-(6-{4-[2-(morpholin-4-yl)ethyl]phenyl}-1-oxo-1,2-dihdroisoquinolin-2-yl)butanamide] | –
< 0.03 | 0.25 (≈ 0.541 µM) | 8 (≈ 17.3 µM) | COc1ccc(-c2ccc3c(=O)n(CC[C@](C)(C(=O)NO)S(C)(=O)=O)cc(F)c3c2)cc1 [Example 83, (2R)-4-[4-fluoro-6-(4-methoxyphenyl)-1-oxo-1,2-dihydroisoquinolin-2-yl]-N-hydroxy-2-methanesulfonyl-2-methylbutanamide] | –
< 0.03 | 0.25 (≈ 0.524 µM) | 16 (≈ 33.5 µM) | CCOc1ccc(-c2ccc3c(=O)n(CC[C@](C)(C(=O)NO)S(C)(=O)=O)cc(F)c3c2)cn1 [Example 86, (2R)-4-[6-(6-ethoxypyridin-3-yl)-4-fluoro-1-oxo-1,2-dihydroisoquinolin-2-yl]-N-hydroxy-2-methanesulfonyl-2-methylbutanamide] | –
0.06 (≈ 0.129 µM) | 0.25 (≈ 0.539 µM) | 8 (≈ 17.3 µM) | COc1ccc(-c2ccc3c(=O)n(CC[C@](C)(C(=O)NO)S(C)(=O)=O)cc(F)c3c2)cn1 [Example 87, (2R)-4-[4-fluoro-6-(6-methoxypyridin-3-yl)-1-oxo-1,2-dihdroisoquinolin-2-yl]-N-hydroxy-2-methanesulfonyl-2-methylbutanamide] | –
0.125 (≈ 0.233 µM) | 0.25 (≈ 0.465 µM) | 2 (≈ 3.72 µM) | COCCNCc1ccc(-c2ccc3c(=O)n(CC[C@](C)(C(=O)NO)S(C)(=O)=O)cc(F)c3c2)c(F)c1 [Example 88, (2R)-4-[4-fluoro-6-(2-fluoro-4-{[(2-methoxyethyl)amino]methyl}phenyl)-1-oxo-1,2-dihydroisoquinolin-2-yl]-N-hydroxy-2-methanesulfonyl-2-methylbutanamide] | –
0.063 (≈ 0.132 µM) | 1 (≈ 2.1 µM) | 32 (≈ 67.2 µM) | CN(C)c1ccc(-c2ccc3c(=O)n(CC[C@](C)(C(=O)NO)S(C)(=O)=O)cc(F)c3c2)cn1 [Example 90, (2R)-4-{6-[6-(dimethylamino)pyridin-3-yl]-4-fluoro-1-oxo-1,2-dihydroisoquinolin-2-yl}-N-hydroxy-2-methanesulfonyl-2-methylbutanamide] | –
0.063 (≈ 0.137 µM) | 0.125 (≈ 0.273 µM) | 0.5 (≈ 1.09 µM) | C[C@@](CCn1ccc2cc(-c3ccc(CCO)cc3)ccc2c1=O)(C(=O)NO)S(C)(=O)=O [Example 93, (2R)—N-hydroxy-4-{6-[4-(2-hydroxyethyl)phenyl]-1-oxo-1,2-dihydroisoquinolin-2-yl}-2-methanesulfonyl-2-methylbutanamide] | –
